Laboratory results as given in article PMC6440935, “Characterization and phase I study of CLR457, an orally bioavailable pan-class I PI3-kinase inhibitor” (Investigational New Drugs, 2018).

Biological target: p110δ (Homo sapiens, UniProt O00329)
Test: In vitro PI3K biochemical assay, p110δ

Chain of p110δ (O00329 2-1044 limits assumed): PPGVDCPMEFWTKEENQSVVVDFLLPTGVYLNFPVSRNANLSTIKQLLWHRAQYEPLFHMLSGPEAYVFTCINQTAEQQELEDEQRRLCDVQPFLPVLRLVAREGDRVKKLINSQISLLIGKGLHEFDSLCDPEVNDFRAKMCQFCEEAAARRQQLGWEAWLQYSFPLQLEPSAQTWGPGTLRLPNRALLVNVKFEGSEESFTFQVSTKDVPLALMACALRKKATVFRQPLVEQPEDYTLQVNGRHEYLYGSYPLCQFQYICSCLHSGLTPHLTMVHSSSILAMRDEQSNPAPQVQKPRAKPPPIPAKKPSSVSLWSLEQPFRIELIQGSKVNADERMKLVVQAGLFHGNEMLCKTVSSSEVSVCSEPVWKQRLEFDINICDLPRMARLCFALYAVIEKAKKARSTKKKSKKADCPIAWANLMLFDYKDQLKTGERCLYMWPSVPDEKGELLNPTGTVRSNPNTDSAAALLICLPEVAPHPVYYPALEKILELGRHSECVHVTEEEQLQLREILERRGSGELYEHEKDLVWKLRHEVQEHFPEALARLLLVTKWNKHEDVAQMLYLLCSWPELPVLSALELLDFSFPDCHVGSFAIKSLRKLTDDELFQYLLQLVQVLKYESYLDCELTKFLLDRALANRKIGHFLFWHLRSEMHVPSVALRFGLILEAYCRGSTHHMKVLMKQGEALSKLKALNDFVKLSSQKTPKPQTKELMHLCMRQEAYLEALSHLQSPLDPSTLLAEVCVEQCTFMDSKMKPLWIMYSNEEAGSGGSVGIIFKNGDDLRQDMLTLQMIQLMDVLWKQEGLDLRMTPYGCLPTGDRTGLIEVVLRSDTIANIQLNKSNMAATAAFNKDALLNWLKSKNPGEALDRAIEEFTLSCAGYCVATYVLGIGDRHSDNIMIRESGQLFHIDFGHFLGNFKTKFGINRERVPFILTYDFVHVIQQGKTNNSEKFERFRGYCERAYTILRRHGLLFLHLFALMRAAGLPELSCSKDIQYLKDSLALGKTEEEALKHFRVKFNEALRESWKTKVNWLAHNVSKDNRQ
Chain of p110δ (P27986 461-568 partner limits assumed): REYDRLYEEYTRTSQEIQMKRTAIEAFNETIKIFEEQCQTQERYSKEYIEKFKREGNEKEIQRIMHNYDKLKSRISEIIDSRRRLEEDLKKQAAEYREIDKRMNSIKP

Work on `C[C@H]1OC(=O)N(c2cc(-c3cnc(N)nc3C(F)(F)F)nc(N3CCOCC3)n2)[C@H]1CO` [CLR457] yielded an IC50 of 39 ± 10 nM.
